The IC50 is the concentration that gives 50% inhibition. For orientation: pIC50 means the IC50 on a negative log10 scale, so that one unit is a factor of ten. A high value points to a small IC50.

Our source for the IC50 values is patent US20250387400A1, “TYK2 INHIBITORS” (BIOGEN MA INC., priority 2022, published 2025).

Each structure is given as a SMILES string. pIC50: −log10 of the molar value. Where two headings read alike, the source gives them in different places.

What all share (type): biochemical
The target of experiment [1] is T1, catalytic kinase (JH1) domain of human JAK1 (Homo sapiens, UniProt P23458).
T1 construct: 4 nM of recombinant JAK1 kinase domain is used to phosphorylate
As to the kind of experiment: ADP-Glo kinase assay, JAK1 kinase domain. The following applies: for IC50: 4 nM recombinant JAK1 kinase domain, 50 μM JAK3-342 peptide, 35 μM ATP, 100 minutes, read-out: JAK1 biochem IC50 (nM) Mean. On the procedure: (§1) As summarized in Table 3 below, compounds of the disclosure were assessed for their ability to inhibit TYK2, JAK1, JAK2, and JAK3 activity.
(§2) The kinase activity of recombinantly generated catalytic kinase (also known as JH1) domain of human JAK1, JAK2, JAK3 and TYK2 were evaluated in a plate-based assay using the ADP-Glo™ Kinase Assay platform. […] The reactions proceed for 100 minutes and the catalytic activity is quantified by first depleting the unused ATP, converting the hydrolyzed ADP into ATP to generate luminescence in a luciferase reaction; which is the basis of the ADP-Glo platform. Compounds are tested at either 10 μM or 1 μM top concentration, 11 points of 3-fold dilution. The data is normalized and the percent activity versus log concentration of compound is fitted with a 4-parameter logistic model to generate a curve and an IC50 value.
For orientation: In ADP-Glo the light output rises with the ADP produced.

Experiment [2] concerns the target T2, catalytic kinase (JH1) domain of human JAK2 (Homo sapiens, UniProt O60674).
T2 construct: Catalytic activities of recombinant JAK2, JAK3 and TYK2 kinase domain
As to the kind of experiment: ADP-Glo kinase assay, JAK2 kinase domain. The following applies: for IC50: 0.2 nM recombinant JAK2 kinase domain, 50 μM JAK3-974 peptide, 15 μM ATP, 100 minutes, read-out: JAK2 biochem IC50 (nM) Mean. How it is done:
as §1, §2

Experiment [3] deals with T3, catalytic kinase (JH1) domain of human JAK3 (Homo sapiens, UniProt P52333).
T3 construct: Catalytic activities of recombinant JAK2, JAK3 and TYK2 kinase domain
As to the kind of experiment: ADP-Glo kinase assay, JAK3 kinase domain. Conditions: for IC50: 0.3 nM recombinant JAK3 kinase domain, 50 μM JAK3-974 peptide, 4 μM ATP, 100 minutes, read-out: JAK3 biochem IC50 (nM) Mean. How it is done:
as §1, §2

Experiment [4] concerns the target T4, catalytic kinase (JH1) domain of human TYK2 (Homo sapiens, UniProt P29597).
T4 construct: recombinantly generated catalytic kinase (also known as JH1) domain of human JAK1, JAK2, JAK3 and TYK2
T4 sequence (P29597 897-1176 limits assumed): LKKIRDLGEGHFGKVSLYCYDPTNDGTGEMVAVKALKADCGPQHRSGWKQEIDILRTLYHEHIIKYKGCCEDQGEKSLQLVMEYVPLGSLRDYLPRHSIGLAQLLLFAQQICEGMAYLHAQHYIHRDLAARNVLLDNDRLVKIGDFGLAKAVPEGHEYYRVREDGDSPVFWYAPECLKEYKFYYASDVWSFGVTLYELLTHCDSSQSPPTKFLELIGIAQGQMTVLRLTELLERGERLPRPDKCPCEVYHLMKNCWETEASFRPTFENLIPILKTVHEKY
As to the kind of experiment: ADP-Glo kinase assay, TYK2 kinase domain. Conditions: for IC50: 2 nM recombinant TYK2 kinase domain, 50 μM JAK3-974 peptide, 10 μM ATP, 100 minutes, read-out: TYK2 biochem IC50 (nM) Mean. How it is done:
as §1, §2

T2 sequence (O60674 849-1124 limits assumed): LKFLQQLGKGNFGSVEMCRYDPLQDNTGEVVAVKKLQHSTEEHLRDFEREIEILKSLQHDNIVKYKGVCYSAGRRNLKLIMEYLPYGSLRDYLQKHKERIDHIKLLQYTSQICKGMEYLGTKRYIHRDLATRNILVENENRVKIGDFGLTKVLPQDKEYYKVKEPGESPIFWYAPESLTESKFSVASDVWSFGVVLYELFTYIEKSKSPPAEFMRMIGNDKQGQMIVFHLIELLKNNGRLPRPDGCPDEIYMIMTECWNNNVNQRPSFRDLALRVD
T1 sequence (P23458 875-1153 limits assumed): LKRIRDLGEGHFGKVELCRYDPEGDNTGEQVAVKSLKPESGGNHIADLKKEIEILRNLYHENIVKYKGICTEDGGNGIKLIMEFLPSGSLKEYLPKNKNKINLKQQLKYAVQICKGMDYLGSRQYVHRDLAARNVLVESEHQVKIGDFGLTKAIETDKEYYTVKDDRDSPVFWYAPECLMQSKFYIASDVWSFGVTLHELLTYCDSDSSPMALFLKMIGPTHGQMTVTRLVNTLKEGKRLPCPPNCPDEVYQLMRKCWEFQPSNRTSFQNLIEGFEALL
T3 sequence (P52333 822-1111 limits assumed): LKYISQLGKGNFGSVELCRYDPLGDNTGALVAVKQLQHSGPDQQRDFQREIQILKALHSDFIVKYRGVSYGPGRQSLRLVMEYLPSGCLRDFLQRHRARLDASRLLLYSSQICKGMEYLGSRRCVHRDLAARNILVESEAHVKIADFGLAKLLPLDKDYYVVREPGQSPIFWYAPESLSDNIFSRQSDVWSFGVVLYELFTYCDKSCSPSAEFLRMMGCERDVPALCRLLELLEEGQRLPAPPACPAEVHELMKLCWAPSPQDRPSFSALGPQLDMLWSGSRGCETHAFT

Regarding `Cn1cc(-c2cc3c(N4CC5CCC(C4)N5C4COC4)ccnn3c2)cn1` [Example 23, 6-(1-methyl-1H-pyrazol-4-yl)-4-(8-(oxetan-3-y1)-3,8-diazabicyclo[3.2.1]octan-3-yl)pyrrolo[1,2-b]pyridazine], the IC50 in experiment [1] worked out at 310 nM; in experiment [2], 185 nM; in experiment [3] it was 2150 nM; in experiment [4] it was 14.5 nM.

`Cn1cc(-c2cc3c(N4CC5CCC(C4)N5C4CC(F)(F)C4)ccnn3c2)cn1` [Example 52, 4-(8-(3,3-difluorocyclobutyl)-3,8-diazabicyclo[3.2.1]octan-3-yl)-6-(1-methyl-1H-pyrazol-4-yl)pyrrolo[1,2-b]pyridazine]: the IC50 in experiment [1] worked out at 57.2 nM; in experiment [2], 35 nM; in experiment [3] it was 574 nM; in experiment [4], 1.9 nM.

With `Cn1cc(-c2cc3c(N4CC5CCC(C4)N5[C@H]4C[C@H](C#N)C4(C)C)ccnn3c2)cn1` (single isomer, unassigned) [Example 46], the pIC50 in experiment [1] is 6.02; in experiment [2] it was 6.67; in experiment [3], 5.73; in experiment [4] it was 7.47.

Consider `COC1CC(N2C3CCC2CN(c2ccnn4cc(-c5cnn(C)c5)cc24)C3)C1` (stereo not drawn) [Example 24, 4-(8-(3-methoxycyclobutyl)-3,8-diazabicyclo[3.2.1]octan-3-yl)-6-(1-methyl-1H-pyrazol-4-yl)pyrrolo[1,2-b]pyridazine], for which the IC50 in experiment [1] worked out at 230 nM; in experiment [2], 380 nM; in experiment [3], 4250 nM; in experiment [4], 19 nM.

Turning to `Cn1cc(-c2cn3nccc(N4CC5CCC(C4)N5[C@H]4C[C@H](C#N)C4)c3n2)cn1` [Example 66, (1R,3r)-3-(3-(2-(1-methyl-1H-pyrazol-4-yl)imidazo[1,2-b]pyridazin-8-yl)-3,8-diazabicyclo[3.2.1]octan-8-yl)cyclobutane-1-carbonitrile], the pIC50 in experiment [1] is 7.82; in experiment [2], 7.67; in experiment [3] it was 6.99; in experiment [4], 8.42.

As for `Cn1cc(-c2cc3c(N4CC5CCC(C4)N5[C@H]4C[C@H](O)C4)ccnn3c2)cn1` [Example 31, (1R,3r)-3-(3-(6-(1-methyl-1H-pyrazol-4-yl)pyrrolo[1,2-b]pyridazin-4-yl)-3,8-diazabicyclo[3.2.1]octan-8-yl)cyclobutan-1-ol], the IC50 was 9200 nM in experiment [1], 4000 nM in experiment [2], greater than 10000 nM in experiment [3] and 205 nM in experiment [4].

In the case of `Cn1cc(-c2nc3c(N4CC5CCC(C4)N5C4COC4)ccnc3[nH]2)cn1` [Example 9, 2-(1-methyl-1H-pyrazol-4-yl)-7-(8-(oxetan-3-yl)-3,8-diazabicyclo[3.2.1]octan-3-yl)-3H-imidazo[4,5-b]pyridine], the pIC50 is 6.56 in experiment [1], 6.66 in experiment [2], less than 6.00 in experiment [3] and 7.37 in experiment [4].

As for `Cc1cc(-c2cc3c(N4CC5CCC(C4)N5[C@H]4C[C@H](C#N)C4)ccnn3c2)on1` [Example 58, (1R,3r)-3-(3-(6-(3-methylisoxazol-5-yl)pyrrolo[1,2-b]pyridazin-4-yl)-3,8-diazabicyclo[3.2.1]octan-8-yl)cyclobutane-1-carbonitrile], the pIC50 was 6.10 in experiment [1], 6.41 in experiment [2], 5.46 in experiment [3] and 7.39 in experiment [4].

Consider `Cn1cc(-c2cc3c(N4CC5CCC(C4)N5[C@H]4C[C@@H](CC#N)C4)ccnn3c2)cn1` [Example 44, 2-((1s,3s)-3-(3-(6-(1-methyl-1H-pyrazol-4-yl)pyrrolo[1,2-b]pyridazin-4-yl)-3,8-diazabicyclo[3.2.1]octan-8-yl)cyclobutyl)acetonitrile], for which the IC50 in experiment [1] was 1700 nM; in experiment [2] it was 900 nM; in experiment [3] it was 3550 nM; in experiment [4], 82 nM.

With `Cn1cc(-c2cc3c(N4CC5CCC(C4)N5[C@H]4C[C@](C)(C#N)C4)ccnn3c2)cn1` [Example 34, (1r,3r)-1-methyl-3-(3-(6-(1-methyl-1H-pyrazol-4-yl)pyrrolo[1,2-b]pyridazin-4-yl)-3,8-diazabicyclo[3.2.1]octan-8-yl)cyclobutane-1-carbonitrile], the IC50 is 720 nM in experiment [1], 295 nM in experiment [2], 2550 nM in experiment [3] and 23 nM in experiment [4].

As to `COc1cc(-c2cc3c(N4CC5CCC(C4)N5C4COC4)ccnn3c2)cnn1` [Example 53, 6-(6-methoxypyridazin-4-yl)-4-(8-(oxetan-3-yl)-3,8-diazabicyclo[3.2.1]octan-3-yl)pyrrolo[1,2-b]pyridazine], the IC50 in experiment [1] was 4200 nM; in experiment [2], 5700 nM; in experiment [3], greater than 10000 nM; in experiment [4], 715 nM.

For the compound `Cn1cc(-c2cc3c(N4CC5CCC(C4)N5[C@H]4C[C@@H](O)C4)ccnn3c2)cn1` [Example 32, (1S,3s)-3-(3-(6-(1-methyl-1H-pyrazol-4-yl)pyrrolo[1,2-b]pyridazin-4-yl)-3,8-diazabicyclo[3.2.1]octan-8-yl)cyclobutan-1-ol], the IC50 in experiment [1] is greater than 10000 nM; in experiment [2], 6300 nM; in experiment [3] it was greater than 10000 nM; in experiment [4] it was 460 nM.

Turning to `Cn1cc(-c2cc3c(N4CC5CCC(C4)N5[C@H]4C[C@@H](S(C)(=O)=O)C4)ccnn3c2)cn1` [Example 36, 6-(1-methyl-1H-pyrazol-4-yl)-4-(8-((1s,3s)-3-(methylsulfonyl)cyclobutyl)-3,8-diazabicyclo[3.2.1]octan-3-yl)pyrrolo[1,2-b]pyridazine], the pIC50 was 6.36 in experiment [1], 6.62 in experiment [2], 5.77 in experiment [3] and 7.30 in experiment [4].

As for `Cn1cc(-c2cc3c(N4CC5CCC(C4)N5[C@H]4C[C@@](C)(C#N)C4)ccnn3c2)cn1` [Example 35, (1s,3s)-1-methyl-3-(3-(6-(1-methyl-1H-pyrazol-4-yl)pyrrolo[1,2-b]pyridazin-4-yl)-3,8-diazabicyclo[3.2.1]octan-8-yl)cyclobutane-1-carbonitrile], the IC50 in experiment [1] was 89 nM; in experiment [2] it was 31.5 nM; in experiment [3] it was 190 nM; in experiment [4], 4.7 nM.

Turning to `Cn1cc(-c2cc3c(N4CC5CCC(C4)N5[C@H]4C[C@H](C#N)C4)ncnc3[nH]2)cn1` [Example 63, (1R,3r)-3-(3-(6-(1-methyl-1H-pyrazol-4-yl)-7H-pyrrolo[2,3-d]pyrimidin-4-yl)-3,8-diazabicyclo[3.2.1]octan-8-yl)cyclobutane-1-carbonitrile], the IC50 in experiment [1] was 4250 nM; in experiment [2], 1800 nM; in experiment [3], 1650 nM; in experiment [4] it was 260 nM.

Consider `Cn1cc(-c2cc3c(N4CC5CCC(C4)N5C4CC5(COC5)C4)ccnn3c2)cn1` [Example 33, 4-(8-(2-oxaspiro[3.3]heptan-6-yl)-3,8-diazabicyclo[3.2.1]octan-3-yl)-6-(1-methyl-1H-pyrazol-4-yl)pyrrolo[1,2-b]pyridazine], for which the pIC50 in experiment [1] was 5.87; in experiment [2], 6.13; in experiment [3], 5.21; in experiment [4], 7.37.

In the case of `Cc1cc(-c2cc3c(N4CC5CCC(C4)N5C4CC(C#N)C4)ccnn3c2)cnn1` (stereo not drawn) [Example 57, 3-(3-(6-(6-methylpyridazin-4-yl)pyrrolo[1,2-b]pyridazin-4-yl)-3,8-diazabicyclo[3.2.1]octan-8-yl)cyclobutane-1-carbonitrile], the IC50 amounted to 134 nM in experiment [1], 108 nM in experiment [2], 690 nM in experiment [3] and 13 nM in experiment [4].

Regarding `CO[C@H]1C[C@H](N2C3CCC2CN(c2ccnc4[nH]c(-c5cnn(C)c5)nc24)C3)C1` [Example 5, 7-(8-((1r,3R)-3-methoxycyclobutyl)-3,8-diazabicyclo[3.2.1]octan-3-yl)-2-(1-methyl-1H-pyrazol-4-yl)-3H-imidazo[4,5-b]pyridine], the IC50 was found to be 900 nM in experiment [1], 870 nM in experiment [2], 9700 nM in experiment [3] and 145 nM in experiment [4].
